In ChEMBL document CHEMBL3046469, “Fungicidal Activities of 2-(Substituted Phenoxymethyl)phenyl-2-methoxyiminoacaetamide Derivatives” (1998):

Tests used:
Assay type in all cases: functional
Pyricularia oryzae [1] = test: Fungicidal activity against Magnaporthe oryzae assessed as rice blast disease control at 31.3 ppm foliar application for 24 hr before inoculation at 27 +/- 2 degC measured after 5 days by preventive manner
Podosphaera fuliginea [2] = test: Fungicidal activity against Podosphaera fuliginea assessed as cucumber powdery mildew control at 2 ppm foliar application 24 hr before inoculation at 23 +/- 2 degC by preventive manner
Botrytis cinerea [3] = test: Fungicidal activity against Botryotinia fuckeliana assessed as cucumber gray mold disease control at 7.8 ppm foliar application […] at 22 +/- 2 degC by preventive manner
[4] = tested on: Blumeria graminis f. sp. tritici; test: Fungicidal activity against Blumeria graminis f. sp. tritici assessed as wheat powdery mildew disease control at 2 ppm foliar application for 48 hr before inoculation by preventive manner
Thanatephorus cucumeris [5] = test: Fungicidal activity against Thanatephorus cucumeris assessed as rice sheath blight disease control at 31.3 ppm foliar application for 24 hr before inoculation at 26 +/- 2 degC measured after 5 days by preventive manner
[6] = tested on: Pseudoperonospora cubensis; test: Fungicidal activity against Pseudoperonospora cubensis assessed as cucumber downy mildew disease control at 2 ppm foliar application 24 hr before inoculation onto the abaxial(untreated) surface of leaf by preventive manner
[7] = tested on: Pseudoperonospora cubensis; test: Fungicidal activity against Pseudoperonospora cubensis assessed as cucumber downy mildew disease control at 2 ppm foliar application 24 hr before inoculation onto the adaxial(treated) surface of leaf by preventive manner
Pyricularia oryzae [8] = test: Fungicidal activity against Magnaporthe oryzae assessed as rice blast disease control at 125 ppm foliar application for 24 hr after inoculation at 27 +/- 2 degC measured after 5 days by curative manner
Podosphaera fuliginea [9] = test: Fungicidal activity against Podosphaera fuliginea assessed as cucumber powdery mildew control at 7.8 ppm foliar application 24 hr before inoculation at 23 +/- 2 degC by preventive manner
[10] = tested on: Blumeria graminis f. sp. tritici; test: Fungicidal activity against Blumeria graminis f. sp. tritici assessed as wheat powdery mildew disease control at 7.8 ppm foliar application 48 hr after inoculation by curative manner
Podosphaera fuliginea [11] = test: Fungicidal activity against Podosphaera fuliginea assessed as cucumber powdery mildew control at 7.8 ppm foliar application 24 hr after inoculation at 23 +/- 2 degC by curative manner
Botrytis cinerea [12] = test: Fungicidal activity against Botryotinia fuckeliana assessed as cucumber gray mold disease control at 7.8 ppm foliar application […] at 22 +/- 2 degC by curative manner
Thanatephorus cucumeris [13] = test: Fungicidal activity against Thanatephorus cucumeris assessed as rice sheath blight disease control at 7.8 ppm foliar application for 24 hr before inoculation at 26 +/- 2 degC measured after 5 days by preventive manner
Pyricularia oryzae [14] = test: Fungicidal activity against Magnaporthe oryzae assessed as rice blast disease control at 2 ppm foliar application for 24 hr after inoculation at 27 +/- 2 degC measured after 5 days by curative manner
Pyricularia oryzae [15] = test: Fungicidal activity against Magnaporthe oryzae assessed as rice blast disease control at 2 ppm foliar application for 24 hr before inoculation at 27 +/- 2 degC measured after 5 days by preventive manner
[16] = tested on: Blumeria graminis f. sp. tritici; test: Fungicidal activity against Blumeria graminis f. sp. tritici assessed as wheat powdery mildew disease control at 2 ppm foliar application for 48 hr after inoculation by curative manner
Podosphaera fuliginea [17] = test: Fungicidal activity against Podosphaera fuliginea assessed as cucumber powdery mildew control at 2 ppm foliar application 24 hr after inoculation at 23 +/- 2 degC by curative manner
[18] = tested on: Pseudoperonospora cubensis; test: Fungicidal activity against Pseudoperonospora cubensis assessed as cucumber downy mildew disease control at 7.8 ppm foliar application 24 hr before inoculation onto the abaxial(untreated) surface of leaf by preventive manner
Botrytis cinerea [19] = test: Fungicidal activity against Botryotinia fuckeliana assessed as cucumber gray mold disease control at 2 ppm foliar application […] at 22 +/- 2 degC by curative manner
[20] = tested on: Pseudoperonospora cubensis; test: Fungicidal activity against Pseudoperonospora cubensis assessed as cucumber downy mildew disease control at 125 ppm foliar application 24 hr before inoculation onto the abaxial(untreated) surface of leaf by preventive manner
Pyricularia oryzae [21] = test: Fungicidal activity against Magnaporthe oryzae assessed as rice blast disease control at 31.3 ppm foliar application for 24 hr after inoculation at 27 +/- 2 degC measured after 5 days by curative manner
Podosphaera fuliginea [22] = test: Fungicidal activity against Podosphaera fuliginea assessed as cucumber powdery mildew control at 31.3 ppm foliar application 24 hr before inoculation at 23 +/- 2 degC by preventive manner
[23] = tested on: Blumeria graminis f. sp. tritici; test: Fungicidal activity against Blumeria graminis f. sp. tritici assessed as wheat powdery mildew disease control at 31.3 ppm foliar application for 48 hr after inoculation by curative manner
Podosphaera fuliginea [24] = test: Fungicidal activity against Podosphaera fuliginea assessed as cucumber powdery mildew control at 31.3 ppm foliar application 24 hr after inoculation at 23 +/- 2 degC by curative manner
[25] = tested on: Blumeria graminis f. sp. tritici; test: Fungicidal activity against Blumeria graminis f. sp. tritici assessed as wheat powdery mildew disease control at 7.8 ppm foliar application 48 24 hr before inoculation by preventive manner
Thanatephorus cucumeris [26] = test: Fungicidal activity against Thanatephorus cucumeris assessed as rice sheath blight disease control at 125 ppm foliar application for 24 hr before inoculation at 26 +/- 2 degC measured after 5 days by preventive manner
[27] = tested on: Pseudoperonospora cubensis; test: Fungicidal activity against Pseudoperonospora cubensis assessed as cucumber downy mildew disease control at 31.3 ppm foliar application 24 hr before inoculation onto the abaxial(untreated) surface of leaf by preventive manner
[28] = tested on: Pseudoperonospora cubensis; test: Fungicidal activity against Pseudoperonospora cubensis assessed as cucumber downy mildew disease control at 7.8 ppm foliar application 24 hr before inoculation onto the adaxial(treated) surface of leaf by preventive manner
Botrytis cinerea [29] = test: Fungicidal activity against Botryotinia fuckeliana assessed as cucumber gray mold disease control at 31.3 ppm foliar application […] at 22 +/- 2 degC by preventive manner
Pyricularia oryzae [30] = test: Fungicidal activity against Magnaporthe oryzae assessed as rice blast disease control at 7.8 ppm foliar application for 24 hr after inoculation at 27 +/- 2 degC measured after 5 days by curative manner
Pyricularia oryzae [31] = test: Fungicidal activity against Magnaporthe oryzae assessed as rice blast disease control at 7.8 ppm foliar application for 24 hr before inoculation at 27 +/- 2 degC measured after 5 days by preventive manner

Structure (SMILES) | Activity (Pyricularia oryzae [1]) [%] | Activity (Podosphaera fuliginea [2]) [%] | Activity (Botrytis cinerea [3]) [%] | Activity [4] [%] | Activity [7] [%] | Activity [10] [%] | Activity (Podosphaera fuliginea [11]) [%] | Activity (Botrytis cinerea [12]) [%] | Activity (Podosphaera fuliginea [17]) [%] | Activity (Thanatephorus cucumeris [26]) [%] | Activity (Pyricularia oryzae [30]) [%] | other results
CNC(=O)/C(=N/OC)c1ccccc1COc1cc(Cl)ccc1Cl | 90 | 90 | 90 | 90 | 90 | – | – | – | – | – | – | Activity (Thanatephorus cucumeris [5]): 90%; Activity [6]: 90%
CNC(=O)/C(=N\OC)c1ccccc1COc1cc(C)ccc1C | 90 | – | 90 | 90 | – | 90 | 90 | 90 | – | – | – | Activity (Pyricularia oryzae [8]): 90%; Activity (Podosphaera fuliginea [9]): 90%
CNC(=O)/C(=N/OC)c1ccccc1COc1cc(C)ccc1C | – | 90 | 90 | 90 | 90 | – | – | – | 90 | – | – | Activity (Thanatephorus cucumeris [13]): 90%; Activity (Pyricularia oryzae [14]): 90%; Activity (Pyricularia oryzae [15]): 90%; Activity [16]: 90%; Activity [18]: 90%; Activity (Botrytis cinerea [19]): 90%
CNC(=O)/C(=N/OC)c1ccccc1COc1ccc(-c2ccccc2)cc1 | – | 90 | 90 | 90 | 90 | 90 | – | 90 | 90 | – | – | Activity (Pyricularia oryzae [14]): 90%; Activity (Pyricularia oryzae [15]): 90%; Activity (Thanatephorus cucumeris [5]): 90%; Activity [20]: 90%
CNC(=O)/C(=N/OC)c1ccccc1COc1ccccc1 | 90 | – | – | – | – | – | – | 90 | – | 90 | – | Activity (Pyricularia oryzae [21]): 90%; Activity (Podosphaera fuliginea [22]): 90%; Activity [23]: 90%; Activity (Podosphaera fuliginea [24]): 90%; Activity [25]: 90%; Activity [27]: 90%; Activity [28]: 90%; Activity (Botrytis cinerea [29]): 90%
CNC(=O)/C(=N/OC)c1ccccc1COc1ccc(Cl)cc1 | 90 | 90 | 90 | 90 | 90 | – | – | – | 90 | <90 | 90 | Activity [16]: 90%; Activity [18]: 90%; Activity (Botrytis cinerea [19]): 90%
CO/N=C(/C(N)=O)c1ccccc1COc1cc(C)ccc1C | 90 | 90 | – | – | – | – | 90 | 90 | – | – | 90 | Activity (Botrytis cinerea [29]): 90%
CNC(=O)/C(=N/OC)c1ccccc1COc1cccc(OC(C)C)c1 | – | – | 90 | 90 | – | 90 | 90 | 90 | – | 90 | 90 | Activity (Pyricularia oryzae [31]): 90%; Activity (Podosphaera fuliginea [9]): 90%; Activity [27]: 90%; Activity [28]: 90%
